Assay results taken from EP4635500A1, “THERAPEUTIC AGENT FOR BACTERIAL INFECTION” (Sumitomo Pharma Co., Ltd., priority 2022, dated 2024).
In brackets after ≈: the same amount, converted by molar mass. Read-outs that look alike come from different tables or passages of the source.

Assays:
Format in all cases: cell-based
[1] = test system: P. aeruginosa; experiment: MIC, broth microdilution, CDC/FDA Antibiotic Resistance Isolate Bank (Example 7, Tables 10, 15); details: Pseudomonas aeruginosa; for MIC: read-out: MIC
[2] = test system: Providencia rettgeri; experiment: MIC, broth microdilution, standard strains and Japanese clinical isolates (Example 5, Table 4); details: ATCCBAA2525; KUB4010 Providencia rettgeri ATCC BAA-2525, OXA-181
[3] = test system: Acinetobacter baumannii; experiment: MIC and MBC, broth microdilution (Example 4, Table 3); details: for MBC: Acinetobacter baumannii
[4] = test system: Escherichia coli; experiment: MIC, broth microdilution, standard strains and Japanese clinical isolates (Example 5, Table 4)
[5] = test system: Enterobacter cloacae; experiment: as above
[6] = Acinetobacter baumannii CDC-303 (OXA-23, OXA-66)

`C[C@@H](O)[C@H]1C(=O)N2C(C(=O)O)=C(S[C@@H]3CN[C@H](C(=O)N(C)C)C3)[C@H](C)[C@H]12` [MEPM, meropenem] showed an MIC ([1]; KUB No. 5696, AR Bank #263, no carbapenemase gene) of at most 0.25 µg/mL, an MIC ([1]; KUB No. 5697, AR Bank #264, no carbapenemase gene) of 2 µg/mL (≈ 5.22 µM) and an MIC ([1]; KUB No. 5698, AR Bank #265, no carbapenemase gene) of 8 µg/mL (≈ 20.9 µM). The MIC ([1]; KUB No. 5699, AR Bank #266, no carbapenemase gene) was 8 µg/mL (≈ 20.9 µM), the MIC ([1]; KUB No. 5700, AR Bank #267, no carbapenemase gene) was 2 µg/mL (≈ 5.22 µM) and the MIC ([1]; KUB No. 5701, AR Bank #268, no carbapenemase gene) was 16 µg/mL (≈ 41.7 µM). It also gave an MIC ([1]; KUB No. 5702, AR Bank #269, no carbapenemase gene) of 8 µg/mL (≈ 20.9 µM), an MIC ([1]; KUB No. 5703, AR Bank #270, no carbapenemase gene) of 2 µg/mL (≈ 5.22 µM) and an MIC ([1]; KUB No. 5704, AR Bank #271, no carbapenemase gene) of 8 µg/mL (≈ 20.9 µM). The MIC ([1]; KUB No. 5705, AR Bank #272, no carbapenemase gene) was 2 µg/mL (≈ 5.22 µM), the MIC ([1]; KUB No. 5747, AR Bank #351, no carbapenemase gene) was 16 µg/mL (≈ 41.7 µM) and the MIC ([1]; KUB No. 5749, AR Bank #353, GES-1) was 16 µg/mL (≈ 41.7 µM). For the same compound, the MIC ([1]; KUB No. 5751, AR Bank #355, no carbapenemase gene) was 8 µg/mL (≈ 20.9 µM), the MIC ([1]; KUB No. 5752, AR Bank #356, KPC-2) was 32 µg/mL (≈ 83.4 µM) and the MIC ([1]; KUB No. 5754, AR Bank #358, no carbapenemase gene) was 8 µg/mL (≈ 20.9 µM). It also gave an MIC ([1]; KUB No. 5755, AR Bank #359, no carbapenemase gene) of 8 µg/mL (≈ 20.9 µM), an MIC ([1]; KUB No. 5756, AR Bank #360, no carbapenemase gene) of 16 µg/mL (≈ 41.7 µM) and an MIC ([1]; KUB No. 5785, AR Bank #439, IMP-18) of 64 µg/mL (≈ 167 µM). It also gave an MIC ([1]; KUB No. 5786, AR Bank #440, no carbapenemase gene) of 8 µg/mL (≈ 20.9 µM), an MIC ([1]; KUB No. 5787, AR Bank #441, KPC-2) of 32 µg/mL (≈ 83.4 µM) and an MIC ([1]; KUB No. 5788, AR Bank #443, no carbapenemase gene) of 16 µg/mL (≈ 41.7 µM). The MIC ([1]; KUB No. 5791, AR Bank #447, no carbapenemase gene) was 2 µg/mL (≈ 5.22 µM), the MIC ([1]; KUB No. 5793, AR Bank #449, no carbapenemase gene) was 16 µg/mL (≈ 41.7 µM) and the MIC ([1]; KUB No. 5798, AR Bank #455, no carbapenemase gene) was 16 µg/mL (≈ 41.7 µM). The MIC ([1]; KUB No. 5799, AR Bank #456, no carbapenemase gene) was 64 µg/mL (≈ 167 µM), the MIC ([1]; KUB No. 5801, AR Bank #458, no carbapenemase gene) was 1 µg/mL (≈ 2.61 µM) and the MIC ([1]; KUB No. 5802, AR Bank #459, no carbapenemase gene) was 16 µg/mL (≈ 41.7 µM). The MIC ([1]; KUB No. 5804, AR Bank #862, no carbapenemase gene) was 8 µg/mL (≈ 20.9 µM), the MIC ([1]; KUB No. 5806, AR Bank #864, no carbapenemase gene) was 64 µg/mL (≈ 167 µM) and the MIC ([1]; KUB No. 5813, AR Bank #508, no carbapenemase gene) was 16 µg/mL (≈ 41.7 µM). It also gave an MIC ([1]; KUB No. 5815, AR Bank #510, no carbapenemase gene) of 0.5 µg/mL (≈ 1.3 µM), an MIC ([1]; KUB No. 5817, AR Bank #512, no carbapenemase gene) of 16 µg/mL (≈ 41.7 µM) and an MIC ([1]; KUB No. 5818, AR Bank #513, no carbapenemase gene) of 32 µg/mL (≈ 83.4 µM). It also gave an MIC ([1]; KUB No. 5820, AR Bank #515, no carbapenemase gene) of 32 µg/mL (≈ 83.4 µM), an MIC ([1]; KUB No. 5821, AR Bank #516, KPC-2) of 64 µg/mL (≈ 167 µM) and an MIC ([1]; KUB No. 5831, AR Bank #526, no carbapenemase gene) of 8 µg/mL (≈ 20.9 µM). It also gave an MIC ([1]; KUB No. 5832, AR Bank #527, no carbapenemase gene) of 16 µg/mL (≈ 41.7 µM), an MIC ([1]; KUB No. 5833, AR Bank #528, no carbapenemase gene) of 8 µg/mL (≈ 20.9 µM) and an MIC ([1]; KUB No. 5834, AR Bank #529, no carbapenemase gene) of 8 µg/mL (≈ 20.9 µM). For the same compound, the MIC50 ([1]; 96 strains of P. aeruginosa) was 16 µg/mL (≈ 41.7 µM), the MIC80 ([1]; 96 strains of P. aeruginosa) was 64 µg/mL (≈ 167 µM) and the MIC [2] was 2 µg/mL (≈ 5.22 µM). The MIC [3, 6] was 64 µg/mL (≈ 167 µM), the MIC ([3]; Acinetobacter baumannii CDC-304 (OXA-66, OXA-72), read-out: MIC) was 64 µg/mL (≈ 167 µM) and the MBC [3, 6] was 64 µg/mL (≈ 167 µM). For the same compound, the MBC ([3]; Acinetobacter baumannii CDC-304 (OXA-66, OXA-72)) was 64 µg/mL (≈ 167 µM), the MIC ([4]; ATCCBAA2340, KUB3148 Escherichia coli ATCC BAA-2340, KPC-3) was 0.5 µg/mL (≈ 1.3 µM) and the MIC ([4]; ATCCBAA2452, KUB4005 Escherichia coli ATCC BAA-2452, NDM-1) was 1 µg/mL (≈ 2.61 µM). For the same compound, the MIC ([4]; ATCCBAA2469, KUB3149 Escherichia coli ATCC BAA-2469, NDM-1) was 2 µg/mL (≈ 5.22 µM), the MIC ([4]; ATCCBAA2471, KUB4007 Escherichia coli ATCC BAA-2471, NDM-6) was 32 µg/mL (≈ 83.4 µM) and the MIC ([4]; ATCCBAA2523, KUB3150 Escherichia coli ATCC BAA-2523, OXA-48) was 0.06 µg/mL (≈ 0.156 µM). For the same compound, the MIC ([4]; KUB3151 Escherichia coli NCTC13476, IMP-1) was 1 µg/mL (≈ 2.61 µM), the MIC ([4]; KUB3605 Escherichia coli Clinical isolate, NDM-1) was 32 µg/mL (≈ 83.4 µM) and the MIC ([5]; ATCCBAA2341, KUB4002 Enterobacter cloacae ATCC BAA-2341, KPC-3) was 16 µg/mL (≈ 41.7 µM). For the same compound, the MIC ([5]; KUB3165 Enterobacter cloacae Clinical isolate, IMP-34) was 0.25 µg/mL (≈ 0.652 µM), the MIC ([5]; KUB3167 Enterobacter cloacae Clinical isolate, IMP-1) was 0.25 µg/mL (≈ 0.652 µM) and the MIC ([5]; KUB3168 Enterobacter cloacae Clinical isolate, carbapenemase genes -) was 0.06 µg/mL (≈ 0.156 µM). The MIC ([5]; KUB3609 Enterobacter cloacae Clinical isolate, IMP-1) was 16 µg/mL (≈ 41.7 µM) and the MIC ([5]; KUB3610 Enterobacter cloacae Clinical isolate, IMP-1) was 4 µg/mL (≈ 10.4 µM).
